Data taken from patent US20230130925A1 (priority 2020, published 2023).
Read-outs that look alike come from different tables or passages of the source.

How the values were obtained:
SARS-cov2 = settings: person

## Cc1nc(Nc2ncc(C(=O)Nc3c(C)cccc3Cl)s2)cc(N2CCN(CCO)CC2)n1 [Dasatinib, reference compound]
Influenza A; human, in vivo, po
  tolerability: tolerates the medication well

## Tocilizumab: anti-IL-6 receptor antibody molecule
SARS-cov2; COPD and diabetes, O2 saturation 87%, Tocilizumab 8 mg/Kg by auto-injector
  clinical course: stabilization
SARS-cov2; fever >38.5° C., O2 saturation 92%, Tocilizumab 8 mg/Kg intravenous infusion
  patient's condition: condition stabilizes initially
SARS-cov2; Tocilizumab 8 mg/Kg by auto-injector
  tolerability: tolerates the medication well
Influenza A; person with ARDS and shock, after Tocilizumab 600 mg i.v.
  renal and neurological status: continues to have renal and neurological deterioration

B1: Sarilumab: anti-IL-6 receptor antibody molecule (antibody, chains of the INN, looked up, V domains shown)
VH: EVQLVESGGGLVQPGRSLRLSCAASRFTFDDYAMHWVRQAPGKGLEWVSGISWNSGRIGYADSVKGRFTISRDNAENSLFLQMNGLRAEDTALYYCAKGRDSFDIWGQGTMVTVSS
VL: DIQMTQSPSSVSASVGDRVTITCRASQGISSWLAWYQQKPGKAPKLLIYGASSLESGVPSRFSGSGSGTDFTLTISSLQPEDFASYYCQQANSFPYTFGQGTKLEIK
SARS-cov2; COPD and hypertension, O2 saturation 89%, Sarilumab 200 mg subcutaneous, self-administered
  tolerability: tolerates the medication well
